From US20110275638A1, “PIPERAZINE DERIVATIVES AND THEIR USE AS LEPTIN RECEPTOR MODULATORS” (priority 2008, published 2011)
pEC50: −log10 of the molar value.

What was measured:
JEG-3 cells [1] = test: [3H]-thymidine incorporation in JEG-3 cells (JEG-3 protocol); assay type: cell-based; settings: FIG. 4
Description: In JEG-3 cells (choriocarcinoma cell line) leptin is able to stimulate proliferation up to 3 fold (Biol. Reprod. (2007) 76: 203-10). […] The radioactivity incorporated by the cells is an index of their proliferative activity and is measured in counts per minute (CPM) with a liquid scintillation beta counter.
This finding can be applied to test whether a compound is able to either reproduce the effect of leptin on cell proliferation (leptin receptor agonist mimetic) (i.e., a given compound will cause an increase in incorporated [^3H]-Thymidine by the cells) or to inhibit the effect of leptin (antagonistic effect) by preventing the leptin-mediated increase in [^3H]-thymidine incorporation.

JEG-3 cells [2] = settings: Biol. Reprod. (2007) 76: 203-10; cited from earlier work

- pEC50 (JEG-3 cells [1]; JEG-3 cells (choriocarcinoma cell line), read-out: EC50, increase in [3H]-thymidine incorporation): 8.68
Substance: leptin: hormone synthesized in fat cells that is believed to act in the hypothalamus to reduce food intake and body weight
- concentration of maximal effect on [3H]-thymidine incorporation (JEG-3 cells [1]; JEG-3 cells): 100 nM
- stimulation of proliferation (JEG-3 cells [2]): up to 3 fold
